From patent US20120095036A1, “NOVEL SUBSTITUTED INDAZOLE AND AZA-INDAZOLE DERIVATIVES AS GAMMA SECRETASE MODULATORS” (priority 2009, published 2012)

Columns and labels:
[1] = system: Aβ42; experiment: In vivo efficacy: Aβ42 lowering in brain (ELISA); set-up: species or system mouse; conditions: brain soluble fraction; typical protocol: single oral dose, overnight fasted animals, after four hours
Description: To determine whether acute administration of an Aβ42 lowering agent would reduce Aβ42 levels in vivo, non-transgenic rodents, e.g. mice or rats were used. Alternatively, two to three month old Tg2576 mice expressing APP695 containing the “Swedish” variant can be used or a transgenic mouse model developed by Dr. Fred Van Leuven (K.U.Leuven, Belgium) and co-workers, with neuron-specific expression of a clinical mutant of the human amyloid precursor protein [V717I] (Moechars et al., 1999 J. Biol. Chem. 274, 6483). Young transgenic mice have high levels of Aβ in the brain but no detectable Aβ deposition. At approximately 6-8 months of age, the transgenic mice start to display spontaneous, progressive accumulation of β-amyloid (A13) in the brain, eventually resulting in amyloid plaques within the subiculum, hippocampus and cortex. Animals treated with the Aβ42 lowering agent were examined and compared to those untreated or treated with vehicle and brain levels of soluble Aβ42 and total Aβ would be quantitated by standard techniques, for example, using ELISA. Treatment periods varied from hours to days and were adjusted based on the results of the Aβ42 lowering once a time course of onset of effect could be established.
A typical protocol for measuring Aβ42 lowering in vivo is shown but it is only one of many variations that could be used to optimize the levels of detectable Aβ. For example, Aβ42 lowering compounds were formulated in 20% of Captisol® (a sulfobutyl ether of β-cyclodextrin) in water or 20% hydroxypropyl β cyclodextrin. The Aβ42 lowering agents were administered as a single oral dose or by any acceptable route of administration to overnight fasted animals. After four hours, the animals were sacrificed and Aβ42 levels were analysed.
Blood was collected by decapitation and exsanguinations in EDTA-treated collection tubes. Blood was centrifuged at 1900 g for 10 minutes (min) at 4° C. and the plasma recovered and flash frozen for later analysis. The brain was removed from the cranium and hindbrain. The cerebellum was removed and the left and right hemisphere were separated. The left hemisphere was stored at −18° C. for quantitative analysis of test compound levels. The right hemisphere was rinsed with phosphate-buffered saline (PBS) buffer and immediately frozen on dry ice and stored at −80° C. until homogenization for biochemical assays.
Mouse brains were resuspended in 10 volumes of 0.4% DEA (diethylamine)/50 mM NaCl pH 10 (for non-transgenic animals) or 0.1% 3-[(3-cholamidopropyl)-dimethyl-ammonio]-1-propanesulfonate (CHAPS) in tris buffered saline (TBS) (for transgenic animals) containing protease inhibitors (Roche-11873580001 or 04693159001) per gram of tissue, e.g. for 0.158 g brain, add 1.58 ml of 0.4% DEA. All samples were sonicated for 30 sec on ice at 20% power output (pulse mode). Homogenates were centrifuged at 221.300×g for 50 min. The resulting high speed supernatants were then transferred to fresh tubes and were optionally further purified before the next step. A portion of the supernatant was neutralized with 10% 0.5 M Tris-HCl and this was used to quantify Aβtotal.
The obtained supernatants were purified with Water Oasis HLB reverse phase columns (Waters Corp., Milford, Mass.) to remove non-specific immunoreactive material from the brain lysates prior subsequent Aβ detection. Using a vacuum manifold, all solutions were passed through the columns at a rate of approximately 1 ml/min, so the vacuum pressure was adjusted accordingly throughout the procedure. Columns were preconditioned with 1 ml of 100% MeOH, before equilibration with 1 ml of H2O, Non-neutralized brain lysates were loaded onto the columns. The loaded samples were then washed twice with the first wash performed with 1 ml of 5% MeOH, and the second wash with 1 ml of 30% MeOH. Finally, the Aβ was eluted from the columns and into 100×30 mm glass tubes, with a solution of 90% MeOH with 2% NH4OH. […]

[2] = system: Aβtotal; experiment: Method 1: Aβtotal sandwich ELISA on media of SKNBE2 cells carrying APP 695 wild type; type: cell-based; conditions: Homo sapiens, SKNBE2 cells APP 695 wild type, 18 hours
In short: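 SKNBE2 cells expressing wild-type APP695 treated with compound for 18 h in Ultraculture; secreted Aβtotal measured by 6E10-capture/biotinylated 4G8 sandwich ELISA with fluorogenic peroxidase read-out. IC50 from 4-parameter fit, top/bottom fixed at 100/0, Hill slope 1; toxicity checked by WST-1.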

[3] = system: Aβ42; experiment: Method 1: Aβ42 sandwich ELISA on media of SKNBE2 cells carrying APP 695 wild type (γ-secretase-modulating activity); type: cell-based; conditions: Homo sapiens, SKNBE2 cells APP 695 wild type, 18 hours
In short: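 SKNBE2 cells expressing wild-type APP695 exposed to compounds for 18 h in Ultraculture with 1% glutamine. Secreted Aβ42 in media quantified by sandwich ELISA (C-terminal capture, biotinylated 3D6 detection, TMB, 450 nm). IC50 from 4-parameter fit, top/bottom fixed 100/0, Hill slope fixed 1; toxicity checked by WST-1.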

Row | SMILES | IC50 [2] [nM] | IC50 [3] [nM] | Aβ42 (% Ctrl) _Mean [1] [% Ctrl]
1 | COc1cc(Nc2cccc3cn(CC(F)(F)F)nc23)ccc1-c1cnc(C)o1 [Compound 6, N-[3-methoxy-4-(2-methyl-5-oxazolyl)phenyl]-2-(2,2,2-trifluoroethyl)-2H-indazol-7-amine] | > 3000 | 152 | 79
2 | COc1cccc(-n2nc3c(Nc4ccc(-c5cnc(C)o5)cc4)cccc3c2C)c1 [Compound 29, 2-(3-methoxyphenyl)-3-methyl-N-[4-(2-methyl-5-oxazolyl)phenyl]-2H-indazol-7-amine] | > 1000 | 28 | 96
3 | COc1cccc(-n2nc3c(Nc4ccc(-c5cnc(C)o5)c(OC)c4)nccc3c2C)c1 [Compound 42, N-[3-methoxy-4-(2-methyl-5-oxazolyl)phenyl]-2-(3-methoxyphenyl)-3-methyl-2H-pyrazolo[3,4-c]pyridin-7-amine] | > 3000 | 91 | 104
4 | COc1cc(Nc2cccc3cn(CC4CC4)nc23)ccc1-c1cnc(C)o1.Cl [Compound 38, 2-(cyclopropylmethyl)-N-[3-methoxy-4-(2-methyl-5-oxazolyl)phenyl]-2H-indazol-7-amine HCl] | > 3000 | 518 | 123

Now from value to molecule, other results behind:

Row | IC50 [2] [nM] | IC50 [3] [nM] | SMILES | Aβ42 (% Ctrl) _Mean [1] [% Ctrl]
5 | > 1000 | 7 | COc1cccc(-n2nc3c(Nc4ccc(-n5cnc(C)c5)c(OC)c4)cccc3c2C)c1 [Compound 2, N-[3-methoxy-4-(4-methyl-1H-imidazol-1-yl)phenyl]-2-(3-methoxyphenyl)-3-methyl-2H-indazol-7-amine] | 59
6 | > 3000 | 46 | COc1cccc(-n2cc3cccc(Nc4ccc(-n5cnc(C)c5)c(OC)c4)c3n2)c1 [Compound 1, N-[3-methoxy-4-(4-methyl-1H-imidazol-1-yl)phenyl]-2-(3-methoxyphenyl)-2H-indazol-7-amine] | 94
7 | > 3000 | 75 | COc1cc(Nc2cccc3cn(Cc4ccc(F)cc4)nc23)ccc1-n1cnc(C)c1 [Compound 15, 2-[(4-fluorophenyl)methyl]-N-[3-methoxy-4-(4-methyl-1H-imidazol-1-yl)phenyl]-2H-indazol-7-amine] | 69
